Data: patent publication US20160235724A1, “TETRAHYDROPYRIDOETHERS FOR THE TREATMENT OF STARGARDT'S DISEASE” (KATAIRO GMBH, priority 2013, published 2016)
Several values for one entry are separate records, joined by “and”; a condition that tells them apart may be missing. Identical values can stand only once. Each block holds one compound with its values, some of them ahead of it.

Columns and labels:
[1] = system: lipofuscin in RPE cells of ABCA4−/− mice; assay: Quantification and ultrastructural (TEM) analysis of lipofuscin in RPE after single intravitreal injection in ABCA4−/− mice (Stargardt's disease model); type: in vivo, mouse; conditions: single intravitreal injection 0.32 mg
Method: Pigmented ABCA4^−/− mice (129S4/SvJae-ABCA4^tm1Ght) were provided by Gabriel Travis (David Geffen School of Medicine, University of California, Los Angeles, Calif.) and bred in the Biomedical Sciences division, University of Oxford. All experiments were conducted in female mice. The animals were kept in a 12 hour light (<100 lux)/dark cycle, with food and water available ad libitum. All animal breeding and experimental procedures were performed under approval of local and national ethical and legal authorities, and were conducted in compliance with the ARVO statement for the Use of Animals in Ophthalmic and Vision Research.
(§1) Two μl PBS containing a total amount of 0.32 mg Soraprazan in suspension were injected into the vitreous of three 12 months old ABCA4^−/− mice.
(§2) The eyes were enucleated after four weeks. Two untreated aged matched ABCA4^−/− mice served as controls. After enucleation, the eyes were cleaned of orbital tissue and, after removal of the cornea, were fixed overnight at 4° C. in 2% glutaraldehyde in 0.1 M cacodylate buffer (pH 7.4) containing 100 mM sucrose. After washing with cacodylate buffer, areas of interest in flat mount preparations were excised and post-fixed with 1% osmium tetroxide in 0.1 M cacodylate buffer at room temperature for 1 h. In some parts of the eyes osmication was omitted which preserved the autofluorescence of lipofuscin. Dehydration was then started by a series of incubations in 30, 50, and 70% ethanol. The samples were stained with saturated uranyl acetate. Dehydration was continued by incubations in 70, 80, 95, 100% ethanol and propylene oxide. The samples were then embedded in Epon (SPI-Pon™812 Epoxy Embedding Kit, SPI supplies, West Chester, Pa.). For light and fluorescence microscopy, staining with osmium and uranylacetate was omitted.
Ultrathin Epon sections (70 nm) from WT control eyes and ABCA4^−/− eyes were post-stained with lead citrate and investigated under a transmission electron microscope (TEM; Model 902 A, Carl Zeiss, Oberkochen, Germany). For statistical analysis, the areas occupied by lipofuscin granules were quantified in 8-10 micrographs from each group. […] For lipofuscin quantification, image analysis software (iTEM, Olympus Soft imaging Solutions, Munster, Germany) was used. For each image, the total area of RPE cytoplasm was determined. […] The area fraction of lipofuscin/melanolipofuscin is expressed as area in μm^2 occupied by lipofuscin per 100 μm^2 RPE cytoplasm.
Statistical significance for the ultrastructural evaluation of lipofuscin granules was determined by using Dunnett's test and the JMP9 statistical program (SAS; Heidelberg, Germany). […]

[2] = system: lipofuscin in RPE cells of ABCA4−/− mice; assay: Fluorescence microscopy of autofluorescent lipofuscin granules in RPE semithin sections of ABCA4−/− mice; type: in vivo, mouse; conditions: 12-month-old ABCA4−/− mice, 4 weeks after single intravitreal injection of 0.32 mg, qualitative
Method: as §1
as §2, with “The samples were stained with saturated uranyl acetate. Dehydration was continued by incubations in 70, 80, 95, 100% ethanol and propylene oxide. The samples were then embedded in Epon (SPI-Pon™812 Epoxy Embedding Kit, SPI supplies, West Chester, Pa.).” left out
Autofluorescent lipofuscin and melanolipofuscin granules were photographed in semi thin sections using a fluorescence microscope (Zeiss Axioplan2 imaging, excitation 370/36 nm, emission 575/15 nm, 40× objective) connected to a personal computer equipped with a CDD camera. Since the granules could not clearly be separated from each other and lipofuscin cannot be differentiated from melanolipofuscin, the quantification of lipofuscin granules was performed using electron microscopy.

[3] = system: Cynomolgus monkey; assay: 52-week oral administration in the Cynomolgus monkey, conventional histopathology of the eye; type: in vivo
Method: Soraprazan was administrated in oral application of 6, 12 and 24 mg/kg/day for 52 weeks in the Cynomolgus monkey.
Some monkeys from the control and the high-dose group were subjected to a recovery period of 3 months.

[4] = system: RPE cells; conditions: known from the literature; cited from earlier work

Compound: CCO[C@H]1c2ccn3c(C)c(C)nc3c2N[C@H](c2ccccc2)[C@H]1O [Example 4, (7S,8R,9R)-2,3-Dimethyl-7-ethoxy-8-hydroxy-9-phenyl-7,8,9,10-tetrahydro-imidazo [1,2-h][1,7]naphthyridine]
melting point: 135 to 137 °C

Compound: CO[C@@H]1[C@@H](c2ccccc2)Nc2c(ccn3c(C)c(C)nc23)[C@H]1OC [Example 8, (7R,8R,9R)-2,3-Dimethyl-7,8-dimethoxy-9-phenyl-7,8,9,10-tetrahydro-imidazo[1,2-h][1,7]naphthyridine]
melting point: 155 to 156 °C

Compound: COCCO[C@@H]1c2ccn3c(C)c(C)nc3c2N[C@H](c2ccccc2)[C@H]1O [Soraprazan, (7R,8R,9R)-2,3-Dimethyl-8-hydroxy-7-(2-methoxyethoxy)-9-phenyl-7,8,9,10-tetrahydro-imidazo [1,2-h][1,7]naphthyridine]
percent area occupied by lipofuscin in RPE cell cytoplasm (median) ([1]; 12-month-old ABCA4−/− mice, eyes enucleated after four weeks, untreated median 12.92%, p<0.0001, Dunnett's test): 6.42% | electron-opaque lipofuscin granules in RPE (TEM) compared to controls ([1]; 12-month-old ABCA4−/− mice, four weeks): significantly reduced in number | appearance of retinas of treated animals ([1]; ABCA4−/− mice): removing lipofuscin. Retinas of treated animals made a healthy | lipofuscin content of RPE cells after treatment (study overview result) ([1]; ABCA4−/− mice, 44 retinal areas, p < 0.0001): significantly reduced and 1. Lipofuscin is removed from ABCA4^−/− mouse RPE cells after | lipofuscin in RPE under fluorescent light compared to untreated mice [2]: lipofuscin was reduced | conventional histopathology findings ([3]; oral 6 mg/kg/day for 52 weeks): no alterations | conventional histopathology findings ([3]; oral 12 mg/kg/day for 52 weeks): no alterations | monkeys showing migration of individual macrophages beneath the RPE and/or into the subretinal space ([3]; oral 24 mg/kg/day for 52 weeks): Three out of 12 | photoreceptors facing the depigmented RPE ([3]; oral 24 mg/kg/day for 52 weeks): stayed healthy | monkeys with depigmentation of RPE cells ([3]; oral 24 mg/kg/day for 52 weeks, among the 3 monkeys with macrophage migration): Two of these 3 | removal of "natural" lipofuscin from RPE cells [4]: remove such lipofuscin from RPE cells

Compound: CCO[C@@H]1c2ccn3c(C)c(C)nc3c2N[C@H](c2ccccc2)[C@H]1O [Example 3, (7R,8R,9R)-2,3-Dimethyl-7-ethoxy-8-hydroxy-9-phenyl-7,8,9,10-tetrahydro-imidazo [1,2-h][1,7]naphthyridine]
melting point: 188 to 190 °C

Compound: Cc1nc2c3c(ccn2c1C)[C@H](OC(C)C)[C@H](O)[C@@H](c1ccccc1)N3 [Example 7, (7S,8R,9R)-2,3-Dimethyl-8-hydroxy-9-phenyl-7-(2-propoxy)-7,8,9,10-tetrahydro-imidazo [1,2-h][1,7]naphthyridine]
melting point: 168 to 169 °C

Compound: CO[C@H]1c2ccn3c(C)c(C)nc3c2N[C@@H](c2ccccc2)[C@@H]1O [Example 1B, (7S,8S,9S)-2,3-Dimethyl-8-hydroxy-7-methoxy-9-phenyl-7,8,9,10-tetrahydro-imidazo [1,2-h][1,7] naphthyridine]
melting point: 161 to 162 °C

Now from value to compound:

melting point: 108 to 110 °C
Compound: CO[C@H]1c2ccn3c(C)c(C)nc3c2N[C@H](c2ccccc2)[C@H]1O [Example 2A, (7S,8R,9R)-2,3-Dimethyl-8-hydroxy-7-methoxy-9-phenyl-7,8,9,10-tetrahydro-imidazo [1,2-h][1,7]naphthyridine]

melting point: 171 to 172 °C
Compound: CO[C@@H]1c2ccn3c(C)c(C)nc3c2N[C@@H](c2ccccc2)[C@@H]1O [Example 2B, (7R,8S,9S)-2,3-Dimethyl-8-hydroxy-7-methoxy-9-phenyl-7,8,9,10-tetrahydro-imidazo[1,2-h][1,7]naphthyridine]
